According to PubChem BioAssay AID248 (DTP/NCI, 2004):
Several values for one entry are separate records, joined by “and”; a condition that tells them apart may be missing. Equal values may be shown once. Inconclusive results and toxic doses are left out.

System: L1210 leukemia ip in BDF1 mice, survival T/C
Experiment: NCI In Vivo Anticancer Drug Screen. Data for tumor model L1210 Leukemia (intraperitoneal) in B6D2F1 (BDF1) mice
Settings: endpoint: mean survival time, higher = longer survival
Outline: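 Value reflects the ratio of survival in compound-treated mice to survival in vehicle-treated controls, with both groups carrying the same transplanted tumor.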

[1] = dose: 100.0 mg/kg/injection, schedule: Q01DX009 (ip), vehicle: Klucel (hydroxypropylcellulose) (HPC)
[2] = dose: 200.0 mg/kg/injection, schedule: Q01DX009 (ip), vehicle: Klucel (hydroxypropylcellulose) (HPC)
[3] = dose: 400.0 mg/kg/injection, schedule: Q01DX009 (ip), vehicle: Klucel (hydroxypropylcellulose) (HPC)
[4] = dose: 100.0 mg/kg/injection, schedule: Q01DX001 (ip), vehicle: saline
[5] = dose: 50.0 mg/kg/injection, schedule: Q01DX001 (ip), vehicle: saline
[6] = dose: 200.0 mg/kg/injection, schedule: Q01DX001 (ip), vehicle: saline
[7] = dose: 400.0 mg/kg/injection, schedule: Q01DX001 (ip), vehicle: saline

**Q.** Which T/C (dose: 100.0 mg/kg/injection, schedule: Q04DX002 (ip), vehicle: Klucel (hydroxypropylcellulose) (HPC)) does the source give for `Clc1ccc(/C=N/N=C/c2ccc(Cl)cc2Cl)c(Cl)c1` here?
**A.** 98 % of control

**Q.** What about the T/C (dose: 200.0 mg/kg/injection, schedule: Q04DX002 (ip), vehicle: Klucel (hydroxypropylcellulose) (HPC)) of the same compound?
**A.** 98 % of control

**Q.** What about the T/C (dose: 400.0 mg/kg/injection, schedule: Q04DX002 (ip), vehicle: Klucel (hydroxypropylcellulose) (HPC)) of the same compound?
**A.** 102 % of control

**Q.** What does the source list for `CC1=CC(=O)C2(C)C(C)=C(C)C12C` (stereo unspecified)?
**A.** T/C (dose: 50.0 mg/kg/injection, schedule: Q04DX003 (ip), vehicle: saline with Tween-80): 99 % of control; T/C (dose: 75.0 mg/kg/injection, schedule: Q01DX001 (ip), vehicle: saline): 105 % of control; T/C (dose: 100.0 mg/kg/injection, schedule: Q04DX003 (ip), vehicle: saline with Tween-80): 94 % of control; T/C (dose: 150.0 mg/kg/injection, schedule: Q01DX001 (ip), vehicle: saline): 111 % of control; T/C (dose: 300.0 mg/kg/injection, schedule: Q01DX001 (ip), vehicle: saline): 97 % of control

**Q.** For `CCN(CC)CCSC(=O)C(O)(c1ccc(C)cc1)c1ccc(C)cc1`, which T/C (dose: 75.0 mg/kg/injection, schedule: Q01DX001 (ip), vehicle: other) is on record?
**A.** 90 % of control

**Q.** And the T/C (dose: 150.0 mg/kg/injection, schedule: Q01DX001 (ip), vehicle: other)?
**A.** 96 % of control

**Q.** What does the source list for `O=C(Nc1cccc(F)c1)Nc1cc([N+](=O)[O-])ccc1Cl`?
**A.** T/C [1]: 97 % of control; T/C [2]: 94 % of control; T/C [3]: 94 % of control and 97 % of control

**Q.** Which results are given for `CCCCN(CCCC)CC(O)c1ccnc2cc3c(cc12)OCO3` (stereo unspecified)?
**A.** T/C (dose: 25.0 mg/kg/injection, schedule: Q01DX009 (ip), vehicle: other): 102 % of control; T/C (dose: 50.0 mg/kg/injection, schedule: Q01DX009 (ip), vehicle: other): 110 % of control; T/C [4]: 97 % of control; T/C (dose: 100.0 mg/kg/injection, schedule: Q01DX009 (ip), vehicle: other): 111 % of control

**Q.** How did the T/C [5] turn out when `O=S(=O)(O)CCBr` was run?
**A.** 108 % of control

**Q.** What about the T/C [4] of the same compound?
**A.** 96 % of control and 104 % of control

**Q.** What about the T/C (dose: 100.0 mg/kg/injection, schedule: Q01DX009 (ip), vehicle: saline) of the same compound?
**A.** 97 % of control

**Q.** And the T/C [6]?
**A.** 101 % of control and 108 % of control

**Q.** What about the T/C (dose: 200.0 mg/kg/injection, schedule: Q01DX009 (ip), vehicle: saline) of the same compound?
**A.** 96 % of control

**Q.** And the T/C [7]?
**A.** 104 % of control and 106 % of control

**Q.** And the T/C (dose: 400.0 mg/kg/injection, schedule: Q01DX009 (ip), vehicle: saline)?
**A.** 108 % of control

**Q.** With `O=C(O)C1=CC2(c3ccccc3)C(=O)C1(c1ccccc1)C1=C2c2cccc3cccc1c23` (stereo unspecified) as the compound, how does the T/C (dose: 50.0 mg/kg/injection, schedule: Q01DX009 (ip), vehicle: saline with Tween-80) read?
**A.** 93 % of control

**Q.** And the T/C (dose: 100.0 mg/kg/injection, schedule: Q01DX009 (ip), vehicle: saline with Tween-80)?
**A.** 93 % of control

**Q.** What about the T/C (dose: 200.0 mg/kg/injection, schedule: Q01DX009 (ip), vehicle: saline with Tween-80) of the same compound?
**A.** 93 % of control

**Q.** How did the T/C [4] turn out when `O=C(NCCCl)NC1CCCC(O)C1` (stereo unspecified) was run?
**A.** 101 % of control

**Q.** And the T/C [6]?
**A.** 101 % of control

**Q.** What about the T/C [7] of the same compound?
**A.** 93 % of control

**Q.** `CSc1n[nH]c(=O)nc1SC` was tested. Which T/C [4] did it give?
**A.** 104 % of control

**Q.** What about the T/C [6] of the same compound?
**A.** 96 % of control

**Q.** How did the T/C [1] turn out when `CC(=O)c1ccc(C(C)=O)c(OCc2ccccc2)c1` was run?
**A.** 101 % of control

**Q.** What about the T/C (dose: 100.0 mg/kg/injection, schedule: Q04DX003 (ip), vehicle: Klucel (hydroxypropylcellulose) (HPC)) of the same compound?
**A.** 103 % of control

**Q.** And the T/C [2]?
**A.** 95 % of control

**Q.** What about the T/C (dose: 200.0 mg/kg/injection, schedule: Q04DX003 (ip), vehicle: Klucel (hydroxypropylcellulose) (HPC)) of the same compound?
**A.** 98 % of control

**Q.** And the T/C [3]?
**A.** 92 % of control

**Q.** And the T/C (dose: 400.0 mg/kg/injection, schedule: Q04DX003 (ip), vehicle: Klucel (hydroxypropylcellulose) (HPC))?
**A.** 97 % of control

**Q.** With `CN(C)/N=N/c1[nH]ncc1C(N)=O` as the compound, how does the T/C [4] read?
**A.** 113 % of control

**Q.** What about the T/C (dose: 108.0 mg/kg/injection, schedule: Q01DX009 (ip), vehicle: saline) of the same compound?
**A.** 176 % of control

**Q.** And the T/C (dose: 300.0 mg/kg/injection, schedule: Q01DX009 (ip), vehicle: saline)?
**A.** 110 % of control

**Q.** What about the T/C (dose: 600.0 mg/kg/injection, schedule: Q01DX001 (ip), vehicle: saline) of the same compound?
**A.** 156 % of control

**Q.** What does the source list for `CC(c1ccccc1)n1ccnc1CC#N` (stereo unspecified)?
**A.** T/C (dose: 12.5 mg/kg/injection, schedule: Q01DX009 (ip), vehicle: saline): 109 % of control and 88 % of control; T/C (dose: 12.5 mg/kg/injection, schedule: Q04DX002 (ip), vehicle: saline): 91 % of control; T/C (dose: 25.0 mg/kg/injection, schedule: Q01DX001 (ip), vehicle: saline): 100 % of control; T/C (dose: 25.0 mg/kg/injection, schedule: Q01DX009 (ip), vehicle: saline): 107 % of control and 114 % of control; T/C (dose: 25.0 mg/kg/injection, schedule: Q04DX002 (ip), vehicle: saline): 101 % of control and 105 % of control and 109 % of control; T/C (dose: 25.0 mg/kg/injection, schedule: Q04DX003 (ip), vehicle: saline): 88 % of control; T/C [5]: 101 % of control; T/C (dose: 50.0 mg/kg/injection, schedule: Q01DX009 (ip), vehicle: saline): 97 % of control and 98 % of control; T/C (dose: 50.0 mg/kg/injection, schedule: Q04DX002 (ip), vehicle: saline): 95 % of control and 96 % of control and 102 % of control; T/C (dose: 50.0 mg/kg/injection, schedule: Q04DX003 (ip), vehicle: saline): 93 % of control

**Q.** `CC1(C)C2CCC(=O)OC1CC2` (stereo unspecified) was tested. Which T/C (dose: 5.0 mg/kg/injection, schedule: Q01DX001 (ip), vehicle: saline) did it give?
**A.** 116 % of control

**Q.** What about the T/C (dose: 10.0 mg/kg/injection, schedule: Q01DX001 (ip), vehicle: saline) of the same compound?
**A.** 100 % of control

**Q.** What about the T/C (dose: 20.0 mg/kg/injection, schedule: Q01DX001 (ip), vehicle: saline) of the same compound?
**A.** 86 % of control

**Q.** What about the T/C (dose: 40.0 mg/kg/injection, schedule: Q01DX001 (ip), vehicle: saline) of the same compound?
**A.** 108 % of control
